Measured values taken from patent US6384224B2, “Certain 1-(2-naphthyl) and 1-(2-azanaphthyl)-4-(1-phenylmethyl) piperazines; dopamine receptor subtype specific ligands” (Neurogen Corporation, priority 1997, dated 2002).

Tested on: not given
Assay: not given
Conditions: not given

| Structure (SMILES) | melting point [°C] |
| --- | --- |
| CC(C)c1ccc(CN2CCN(c3ccc4ccccc4n3)CC2)cc1.Cl | 270 to 271 |
| Clc1ccc(CN2CCN(c3cnc4ccccc4n3)CC2)cc1.O=C(O)C(=O)O | 209 to 212 |
| Br.Fc1ccc(CN2CCN(c3ccc4ccccc4c3)CC2)cc1 | 244 to 246 |
| Fc1ccc(CN2CCN(c3cc(F)c4ccccc4n3)CC2)cc1.O=C(O)C(=O)O | 191 to 193 |
| Br.Cc1cc(N2CCN(Cc3ccc(Cl)cc3)CC2)nc2ccccc12 | 215 to 217 |
| Br.FC(F)(F)c1ccc(CN2CCN(c3ccc4ccccc4n3)CC2)cc1 | 271 to 273 |
| Br.Fc1cccc(CN2CCN(c3ccc4ccccc4c3)CC2)c1 | 253 to 255 |
| Br.Clc1ccc(CN2CCN(c3ccc4ccccc4n3)CC2)cc1Cl | 285 to 287 |
| CC(C)(C)c1ccc(CN2CCN(c3ccc4ccccc4n3)CC2)cc1.Cl | 285 to 287 |
| Br.Clc1ccc(CN2CCN(c3ccc4ccccc4n3)CC2)cc1 | 268 to 271 |
| FC(F)(F)Oc1ccc(CN2CCN(c3ccc4ccccc4n3)CC2)cc1 [Example 3(l), 1-(quinolin-2-yl)-4-(1-[4-trifluoromethoxyphenyl]methyl)piperazine] | 109 to 110 |

Now from value to compound:

| melting point [°C] | Structure (SMILES) |
| --- | --- |
| 295 to 296 | Br.Cc1ccc2c(C)cc(N3CCN(Cc4ccc(Cl)cc4)CC3)nc2c1 |
| 250 to 253 | COc1ccc2nc(N3CCN(Cc4ccc(Cl)cc4)CC3)cc(C)c2c1.Cl |
| 239 to 240 | Br.Fc1ccccc1CN1CCN(c2ccc3ccccc3c2)CC1 |
| 278 to 280 | Cc1ccc(CN2CCN(c3ccc4ccccc4n3)CC2)cc1.Cl |
| 207 to 209 | Clc1ccc(CN2CCN(c3ncc4ccccc4n3)CC2)cc1.O=C(O)C(=O)O |
| 293 to 295 | Br.Cc1nc2ccccc2nc1N1CCN(Cc2ccc(Cl)cc2)CC1 |
| 186 to 187 | Fc1cc(N2CCN(Cc3ccccc3)CC2)nc2ccccc12.O=C(O)C(=O)O |
| 222 to 223 | Br.Cc1ccc(CN2CCN(c3ccc4ccccc4c3)CC2)cc1 |
| 279 to 280 | Br.c1ccc2nc(N3CCN(Cc4ccc5c(c4)OCO5)CC3)ccc2c1 |
| 262 to 264 | Br.Cc1cc(N2CCN(Cc3ccc(Cl)cc3)CC2)nc2c(C)cccc12 |
| 216 to 218 | Cl.Clc1ccc(CN2CCN(c3ccc4ccccc4c3)CC2)cc1 |

Biological target: T1, D2 receptors (Chlorocebus aethiops, UniProt P52702)
T1 construct: expressed in transfected cells; host or cells: COS cells
T1 sequence (P52702 whole entry): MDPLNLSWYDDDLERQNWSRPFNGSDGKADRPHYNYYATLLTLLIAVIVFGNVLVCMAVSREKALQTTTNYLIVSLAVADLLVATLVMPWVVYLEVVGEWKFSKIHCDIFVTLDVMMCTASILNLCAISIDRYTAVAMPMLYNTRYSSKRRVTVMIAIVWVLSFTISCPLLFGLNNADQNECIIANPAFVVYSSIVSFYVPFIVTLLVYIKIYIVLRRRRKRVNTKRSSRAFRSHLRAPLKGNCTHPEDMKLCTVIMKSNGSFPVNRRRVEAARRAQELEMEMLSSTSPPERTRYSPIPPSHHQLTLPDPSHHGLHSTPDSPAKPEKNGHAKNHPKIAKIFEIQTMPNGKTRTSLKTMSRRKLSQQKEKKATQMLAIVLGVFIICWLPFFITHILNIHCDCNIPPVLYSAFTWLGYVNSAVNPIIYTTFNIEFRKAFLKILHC
Assay: D2 receptor binding, 3H-YM 09151-2 displacement, COS cell pellets
Design: species or system African Green monkey
Conditions: recombinant receptor in COS cells; 0.5 nM 3H-YM 09151-2
Protocol: (§1) Pellets of COS cells containing recombinantly produced D2 or D4 receptors from African Green monkey are used for the assays. The sample is homogenized in 100 volumes (w/vol) of 0.05 M Tris HCl buffer at 4° C. and pH 7.4. The sample is then centrifuged at 30,000×g and resuspended and rehomogenized. The sample is again centrifuged as described above and the final tissue sample is frozen until use. The tissue is resuspended 1:20 (wt/vol) in 0.05 M Tris HCl buffer containing 100 mm NaCl.
(§2) Incubations are carried out at […] and contain 0.4 ml of tissue sample, 0.5 nM ^3H-YM 09151-2 (Nemonapride, cis-5-Chloro-2-methoxy-4-(methylamino)-N-(2-methyl-2-(phenylmethyl)-3-pyrrolidinyl)benzamide) and the compound of interest in a total incubation of 1.0 ml. Nonspecific binding is defined as that binding found in the presence of […]; without further additions, nonspecific binding is less than 20% of total binding. Binding characteristics for examples of compounds encompassed within Formula I for the D2 and D4 receptor subtypes are shown in Table 2 for rat striatal homogenates.

| Ki [µM] | Structure (SMILES) |
| --- | --- |
| 1.93 | Clc1ccc(CN2CCN(c3ccc4c(n3)CCCC4)CC2)cc1 [Compound 7] |
| > 4 | Clc1ccc(CN2CCN(c3ccc4ccccc4c3)CC2)cc1 [Compound 6] |
| > 4 | Clc1ccc(CN2CCN(c3cnc4ccccc4n3)CC2)cc1 [Compound 3] |
| > 4 | Cc1ccc(CN2CCN(c3ccc4ccccc4n3)CC2)cc1 [Compound 2] |

Tested on: D4 receptors
Assay: D4 receptor binding, 3H-YM 09151-2 displacement, COS cell pellets
Design: species or system African Green monkey
Conditions: evaluated in the assays described above (Example 7); read-out: interaction with the D4 receptor subtype (IC50)
Protocol: as §1, §2

| IC50 [nM] | Structure (SMILES) |
| --- | --- |
| 33 | c1ccc(CN2CCN(c3ccc4ccccc4c3)CC2)cc1 [Comparative Compound A, 1-naphth-2-yl-4-benzylpiperazine, reference compound] |
| 194 | c1ccc(CN2CCN(c3ccc4ccccc4n3)CC2)cc1 [Comparative Compound B, 1-(quinolin-2-yl)-4-benzylpiperazine, reference compound] |

Same assay, conditions: recombinant receptor in COS cells; 0.5 nM 3H-YM 09151-2

| Structure (SMILES) | Ki [nM] |
| --- | --- |
| Clc1ccc(CN2CCN(c3ccc4c(n3)CCCC4)CC2)cc1 [Compound 7] | 7 |
| Clc1ccc(CN2CCN(c3ccc4ccccc4c3)CC2)cc1 [Compound 6] | 9 |
| Clc1ccc(CN2CCN(c3cnc4ccccc4n3)CC2)cc1 [Compound 3] | 11 |
| Cc1ccc(CN2CCN(c3ccc4ccccc4n3)CC2)cc1 [Compound 2] | 8 |
